Laboratory results reported in patent publication US11452781B2, “Method of preventing and treating type 1 diabetes, allograft rejection and lung fibrosis (by targeting the ATP/P2X7R axis)” (CHILDREN'S MEDICAL CENTER CORPORATION, priority 2013, dated 2022).
Entries after “also recorded” stand apart in the source; their conditions may differ.

How the values were obtained:
Format in all cases: cell-based, mouse
naïve CD4+ T-cells [1] = experiment: ELISPOT, naïve CD4+ T cells stimulated with anti-CD3-Ig and anti-CD28-Ig
Procedure: (§1) The effect of P2X7R targeting was tested by treatment with oATP during T-cell activation. […] Similarly, in a T-cell proliferation assay, CFSE-labeled naïve CD4^+ T-cells were stimulated for 4 days with 0.5 μg/ml anti-CD3-Ig and anti-CD28-Ig; treatment with 100 μM oATP diminished CD4^+ T-cell proliferation (FIG. 5B, right panel) compared to controls (FIG. 5B, left panel).
To address the mechanisms underlying P2X7R targeting mediated inhibition of cardiac transplant rejection, the inventors analyzed the effect of P2X7R targeting on T-cell activation and Th1/Th17 differentiation in vitro. […] The effect of in vitro P2X7R targeting with oATP during CD4+ T-cell activation was tested. […] Second, in a T-cell proliferation assay, carboxyfluorescein diacetate succinimidyl ester-labeled naïve CD4+ T cells were stimulated for 96 hours with 0.5 μg/mL anti-CD3-Ig and anti-CD28-Ig, and treatment with 100 μM oATP diminished CD4+ T cell proliferation in comparison with controls. […] The inventors next tested the effect of in vitro P2X7R targeting during a Th1/Th17 generation and differentiation assay. […] P2X7R targeting with oATP inhibited Th0 conversion into both Th1 and Th17, as assessed by the percentage of IFN-γ+ and IL-17+ cells, respectively. The inventors show, therefore, that P2X7R targeting through oATP suppresses activation, proliferation, and Th1/Th17 differentiation of CD4+ T cells. The inventors then further investigated the role of P2X7R on T-cell activation and Th1/Th17 differentiation by genetic upregulation of P2X7R. P2X7R cDNA was transduced by using a pMY-IRES-GFP retroviral vector into CD4+ T cells (pmY-P2X7R CD4+ T cells), and upregulation of P2X7R expression was confirmed by Western blot. pmY-P2X7R CD4+ T cells were then challenged with anti-CD3-Ig/anti-CD28-Ig stimulation in an ELISPOT assay. […] In a Th1/Th17 generation assay, pmY-P2X7R CD4+ T cells seemed to display increased differentiation capacity in comparison with pmY-mock CD4+ T cells, as assessed by T-bet and ROR-γ expression.
Several key components of T-cell receptor signaling involved in the alloimmune response were examined, and the phosphorylation kinetics following in vitro anti-CD3-Ig/anti-CD28-Ig-mediated CD4+ T-cell activation was evaluated by using the Luminex assay. […] The inventors first confirmed that Colivelin (Col) was able to restore the activation-induced phosphorylation of STAT3 in a dose-dependent manner in oATP-treated CD4+ T cells by Western blotting. […] The effect of oATP and Colivelin on STAT3 phosphorylation and T-cell function was also evaluated following cardiac transplantation.

naïve CD4+ T-cells [2] = experiment: CFSE T-cell proliferation assay, anti-CD3-Ig/anti-CD28-Ig; details: 100 μM oATP, 4 days (96 hours)
Procedure: as §1
To address the mechanisms underlying P2X7R targeting mediated inhibition of cardiac transplant rejection, the inventors analyzed the effect of P2X7R targeting on T-cell activation and Th1/Th17 differentiation in vitro. […] The effect of in vitro P2X7R targeting with oATP during CD4+ T-cell activation was tested. […] Second, in a T-cell proliferation assay, carboxyfluorescein diacetate succinimidyl ester-labeled naïve CD4+ T cells were stimulated for 96 hours with 0.5 μg/mL anti-CD3-Ig and anti-CD28-Ig, and treatment with 100 μM oATP diminished CD4+ T cell proliferation in comparison with controls. […] P2X7R targeting with oATP inhibited Th0 conversion into both Th1 and Th17, as assessed by the percentage of IFN-γ+ and IL-17+ cells, respectively. […] In a Th1/Th17 generation assay, pmY-P2X7R CD4+ T cells seemed to display increased differentiation capacity in comparison with pmY-mock CD4+ T cells, as assessed by T-bet and ROR-γ expression.

C57BL/6 splenocytes = experiment: In vitro alloimmune ELISPOT, C57BL/6 responder splenocytes vs irradiated BALB/c splenocytes
Text: The effect of increasing doses of oATP on Th1/Th17 cytokine levels was next tested. A dose-dependent response was evident, in which oATP reduced the number of cells producing Th1 cytokines (IFN-γ and IL-2) and Th17 cytokines (IL-6 and IL-17). Because it has been reported that oATP may affect other P2XRs, the inventors made use of the availability of the selective P2X1R inhibitor NF 449 and of the selective P2X3R inhibitor NF 110. C57BL/6 splenocytes were stimulated with irradiated BALB/c splenocytes, and IFN-γ production was evaluated in the presence of these inhibitors.

[3] = tested on: OT1 splenocytes (CD8 T cells); experiment: OT1 splenocytes stimulated with OVA peptide, proliferation; details: oATP 100 μM
Procedure: FIG. 16A depicts a graph of CD8 activation levels. To better assess the response of CD8 T cells, splenocytes isolated from OT1 mice were stimulated with OVA peptide with and without (positive control) oATP (100 μM) and T cell proliferation determined. […] FIG. 16C depicts photomicroscopy images and a graph of cell growth and survival. Freshly isolated human peripheral blood mononuclear cells (PBMCs, 4×10^5/ml) were applied onto pre-seeded A549 cells (at ˜20% confluency). Cells were cultured in RPMI medium supplemented with interferon gamma (IFNγ) with or without oATP for 7 days. […]
Outcome Measures—In vivo assessment of transplanted lung function was performed by thoracic CT scan imaging and measuring peak airway pressures (PawP) as previously described {Bizargity, #22}. ATP levels were measured from transplanted lung bronchoalveolar lavage fluid (BAL) by bioluminescent detection using Enliten ATP assay system (FF2000, Promega Corporation, Madison, Wis.). […] Immunohistochemistry was performed on frozen lung tissue sections utilizing CD4 and CD8 antibodies and isotype controls and assessed based on the average of 10 high power fields/lung allograft. […]
To assess the inhibitory actions of oATP upon CD8 cells, a CD8 specific response was analyzed by utilizing OT1 splenocytes stimulated with OVA peptide. […]

periodate-oxidized ATP [oATP]
number of IFN-γ-producing CD4+ T-cells (naïve CD4+ T-cells [1]; 100 μM oATP, 24 hours): significantly reduced; also recorded: suppressed | expression levels of the P2XsR (naïve CD4+ T-cells [1]; oATP present during stimulation): not influenced | CD4+ T-cell proliferation (naïve CD4+ T-cells [2]): diminished; also recorded: suppressed | IL-4 production (C57BL/6 splenocytes; increasing concentrations of oATP): dose-dependent increase | number of cells producing Th1 (IFN-γ, IL-2) and Th17 (IL-6, IL-17) cytokines (C57BL/6 splenocytes; increasing doses, dose-dependent): reduced | allo-specific CD8 activation/proliferation [3]: dramatic reduction; also recorded: significant reduction
